Experimental findings from EP2100894A1, “Pyridopyrimidines used as Plk1 (polo-like kinase) inhibitors” (4SC AG, priority 2008, dated 2009) are described below.

Molecules are shown by their SMILES. Some results are limits rather than exact numbers.

The term IC50 denotes the concentration that gives 50% inhibition.

The target of the assay is T1, PIk1 (Homo sapiens, UniProt P53350).
T1 construct: His tag (histidine tag) (N); made in house; host or cells: SF9 insect cells
T1 sequence (P53350 whole entry): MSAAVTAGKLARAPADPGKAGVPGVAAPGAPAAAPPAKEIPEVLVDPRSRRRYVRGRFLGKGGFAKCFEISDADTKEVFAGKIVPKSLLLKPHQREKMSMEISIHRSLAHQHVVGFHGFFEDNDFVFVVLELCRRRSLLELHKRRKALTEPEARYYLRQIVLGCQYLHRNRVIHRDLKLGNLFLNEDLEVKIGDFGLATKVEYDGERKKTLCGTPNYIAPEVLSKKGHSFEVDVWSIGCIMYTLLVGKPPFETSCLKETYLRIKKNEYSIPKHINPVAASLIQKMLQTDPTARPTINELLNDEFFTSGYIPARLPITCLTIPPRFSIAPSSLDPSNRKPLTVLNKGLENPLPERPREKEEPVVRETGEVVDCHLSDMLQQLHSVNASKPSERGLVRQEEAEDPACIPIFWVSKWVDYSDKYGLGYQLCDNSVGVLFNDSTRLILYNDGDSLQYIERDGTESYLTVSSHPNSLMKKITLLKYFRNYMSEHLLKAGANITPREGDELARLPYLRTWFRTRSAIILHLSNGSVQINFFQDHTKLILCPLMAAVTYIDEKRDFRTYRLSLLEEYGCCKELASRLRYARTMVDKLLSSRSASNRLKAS
In words: PIk1 kinase activity inhibition assay (33P incorporation into alpha casein, flash plates). The conditions noted are these: recombinant N-terminally histidine-tagged PIk1, alpha casein as substrate, 100 nM Li-ATP, 80 minutes at 30°C. The class given is biochemical. The procedure: The inhibition of PIk1 kinase activity can be measured using recombinant PIk1 protein expressed as an N-terminally histidine-tagged protein in SF9 insect cells and alpha casein as substrate. The PIk1 assay is run in 96 well plates by incubating 50 to 100 ng per well recombinant PIk1, 500 ng per well alpha casein (Sigma, # C-6780) as substrate, 10 µl of compound of invention (test compounds were dissolved as 20 mM solutions in dimethylsulfoxide (DMSO) and subsequently diluted), and 100 nM Li-ATP (including ^33P-ATP) in 100 µl of reaction buffer ([…], pH 7.5; 3 mM MgCl2; 3 mM MnCl2; 3 µM Na-Orthovanadat; 1 mM DTT; 1 µg/ml PEG 8000) for 80 minutes at 30°C. The reactions are terminated by adding 100 µl stopping buffer (2% H3PO4 for 5 minutes) and are washed 3 times with washing solution (0,9% NaCl). Determining ^33P incorporated into the protein substrate alpha casein, the detection is based on the adhesion of the phosphorylated protein to the surface of scintillator-coated flash plates (Perkin Elmer, USA; # SMP-200). Phosphorylation of alpha casein is measured by counting the radioactivity bound to the plate for 60 sec. using a plate reader (Perkin Elmer, USA; Wallac Microbeta). By this method, the IC50 value of the PIk1 inhibition is determined as described above. […]
Consider `COc1cc(C(=O)NC2CCN(C)CC2)ccc1Nc1ncc2c(n1)c(-c1ccsc1)c(OCC1CC1)c(=O)n2C` [Example 32, 4-{[7-(cyclopropylmethoxy)-5-methyl-6-oxo-8-(3-thienyl)-5,6-dihydro-pyrido[3,2-d]pyrimidin-2-yl]amino}-3-methoxy-N-(1-methylpiperidin-4-yl)benzamide], for which the 50% inhibitory concentration (IC50) is under 0.1 µM.
Then `COc1cc(C(=O)NC2CCN(C)CC2)ccc1Nc1ncc2c(n1)c(-c1ccc(C)cc1)c(OCC1CC1)c(=O)n2C` [Example 62, 4-{[7-(cyclopropylmethoxy)-5-methyl-8-(4-methylphenyl)-6-oxo-5,6-dihydropyrido[3,2-d]pyrimidin-2-yl]amino}-3-methoxy-N-(1-methylpiperidin-4-yl)benzamide], with under 0.01 µM; and `COc1cc(C(=O)NC2CCN(C)CC2)ccc1Nc1ncc2c(cc(OC)c(=O)n2C)n1` [Example 21, 3-methoxy-4-[(7-methoxy-5-methyl-6-oxo-5,6-dihydropyrido[3,2-d]pyrimidin-2-yl)amino]-N-(1-methylpiperidin-4-yl)benzamide], with under 1 µM; and `COc1cc(C(=O)NC2CCN(C)CC2)ccc1Nc1ncc2c(cc(OCC3CCCCC3)c(=O)n2C)n1` [Example 9, 4-{[7-(cyclohexylmethoxy)-5-methyl-6-oxo-5,6-dihydropyrido[3,2-d]pyrimidin-2-yl]amino}-3-methoxy-N-(1-methylpiperidin-4-yl)benzamide], with under 1 µM.
Then `COc1cc(C(=O)NC2CCN(C)CC2)ccc1Nc1ncc2c(n1)c(-c1cscn1)c(OCC1CC1)c(=O)n2C` [Example 63, 4-{[7-(cyclopropylmethoxy)-5-methyl-6-oxo-8-(1,3-thiazol-4-yl)-5,6-dihydropyrido[3,2-d]pyrimidin-2-yl]amino}-3-methoxy-N-(1-methylpiperidin-4-yl)benzamide], with under 0.01 µM.
In the case of `COc1cc(C(=O)NC2CCN(C)CC2)ccc1Nc1ncc2c(n1)c(CC1=CCOC1)c(OC)c(=O)n2C` [Example 23, 4-{[8-(2,5-dihydrofuran-3-ylmethyl)-7-methoxy-5-methyl-6-oxo-5,6-dihydropyrido[3,2-d]pyrimidin-2-yl]amino}-3-methoxy-N-(1-methylpiperidin-4-yl)benzamide], the IC50 was under 1 µM.
With `COc1cc(C(=O)NC2CCN(C)CC2)ccc1Nc1ncc2c(n1)c(-c1csc(C)c1)c(OCC1CC1)c(=O)n2C` [Example 60, 4-{[7-(cyclopropylmethoxy)-5-methyl-8-(5-methyl-3-thienyl)-6-oxo-5,6-dihydropyrido[3,2-d]pyrimidin-2-yl]amino}-3-methoxy-N-(1-methylpiperidin-4-yl)benzamide] the figure was under 0.01 µM; with `CCOc1c(-c2nccs2)c2nc(Nc3ccc(C(=O)NC4CCN(C)CC4)cc3OC)ncc2n(C)c1=O` [Example 50, 4-{[7-ethoxy-5-methyl-6-oxo-8-(1,3-thiazol-2-yl)-5,6-dihydropyrido[3,2-d]pyrimidin-2-yl]amino}-3-methoxy-N-(1-methylpiperidin-4-yl)benzamide], under 0.1 µM.
Then `COc1cc(C(=O)NC2CCN(C)CC2)ccc1Nc1ncc2c(n1)c(-c1cccc(F)c1)c(OCC1CC1)c(=O)n2C` [Example 54, 4-{[7-(cyclopropylmethoxy)-8-(3-fluorophenyl)-5-methyl-6-oxo-5,6-dihydropyrido[3,2-d]pyrimidin-2-yl]amino}-3-methoxy-N-(1-methylpiperidin-4-yl)benzamide], with under 0.01 µM; and `COc1cc(C(=O)NC2CCN(C)CC2)ccc1Nc1ncc2c(n1)c(-c1ccsc1)c(OC1CC1)c(=O)n2C` [Example 58, 4-{[7-(cyclopropyloxy)-5-methyl-6-oxo-8-(3-thienyl)-5,6-dihydropyri-do[3,2-d]pyrimidin-2-yl]amino}-3-methoxy-N-(1-methylpiperidin-4-yl)benzamide], with under 0.01 µM.
As for `COc1cc(C(=O)NC2CCN(C)CC2)ccc1Nc1ncc2c(n1)c(-c1ccsc1)c(OC)c(=O)n2C` [Example 4, 3-methoxy-4-{[7-methoxy-5-methyl-6-oxo-8-(3-thienyl)-5,6-dihydro-pyrido[3,2-d]pyrimidin-2-yl]amino}-N-(1-methylpiperidin-4-yl)benzamide], the IC50 was under 0.01 µM.
Then `COc1cc(C(=O)NC2CCN(C)CC2)ccc1Nc1ncc2c(n1)c(C1CC1)c(OC)c(=O)n2C` [Example 19, 4-[(8-cyclopropyl-7-methoxy-5-methyl-6-oxo-5,6-dihydropyrido[3,2-d]pyrimidin-2-yl)amino]-3-methoxy-N-(1-methylpiperidin-4-yl)benzamide], with under 0.1 µM.
With `COc1cc(C(=O)NC2CCN(C)CC2)ccc1Nc1ncc2c(n1)c(C1=C(C)CCC1)c(OC)c(=O)n2C` [Example 15, 3-methoxy-4-{[7-methoxy-5-methyl-8-(2-methylcyclopent-1-en-1-yl)-6-oxo-5,6-dihydropyrido[3,2-d]pyrimidin-2-yl]amino}-N-(1-methylpiperidin-4-yl)benzamide] the figure was under 1 µM.
Then `COc1cc(C(=O)NC2CCN(C)CC2)ccc1Nc1ncc2c(n1)c(-c1ccc(F)cc1)c(OCC1CC1)c(=O)n2C` [Example 52, 4-{[7-(cyclopropylmethoxy)-8-(4-fluorophenyl)-5-methyl-6-oxo-5,6-dihydropyrido[3,2-d]pyrimidin-2-yl]amino}-3-methoxy-N-(1-methylpiperidin-4-yl)benzamide], with under 0.01 µM; and `CCc1cc(C(=O)NC2CCN(C)CC2)ccc1Nc1ncc2c(n1)c(-c1ccsc1)c(OCC1CC1)c(=O)n2C` [Example 72, 4-{[7-(cyclopropylmethoxy)-5-methyl-6-oxo-8-(3-thienyl)-5,6-dihydro-pyrido[3,2-d]pyrimidin-2-yl]amino}-3-ethyl-N-(1-methylpiperidin-4-yl)benzamide], with under 0.01 µM.
Regarding `CCOc1cc(C(=O)NC2CCN(C)CC2)ccc1Nc1ncc2c(n1)c(-c1ccsc1)c(OCC1CC1)c(=O)n2C` [Example 75, 4-{[7-(cyclopropylmethoxy)-5-methyl-6-oxo-8-(3-thienyl)-5,6-dihydro-pyrido[3,2-d]pyrimidin-2-yl]amino}-3-ethoxy-N-(1-methylpiperidin-4-yl)benzamide], the IC50 was under 0.01 µM.
With `COc1cc(C(=O)NC2CCN(C)CC2)ccc1Nc1ncc2c(n1)c(-c1ccccc1)c(OC)c(=O)n2C` [Example 3, 3-methoxy-4-[(7-methoxy-5-methyl-6-oxo-8-phenyl-5,6-dihydropyrido[3,2-d]pyrimidin-2-yl)amino]-N-(1-methylpiperidin-4-yl)benzamide] the figure was under 0.1 µM; with `C/C=C/c1c(OCC2CC2)c(=O)n(C)c2cnc(Nc3ccc(C(=O)NC4CCN(C)CC4)cc3OC)nc12` [Example 27, 4-({7-(cyclopropylmethoxy)-5-methyl-6-oxo-8-[(1E)-prop-1-en-1-yl]-5,6-dihydropyrido[3,2-d]pyrimidin-2-yl}amino)-3-methoxy-N-(1-methylpiperidin-4-yl)benzamide], under 0.1 µM.
Then `COc1cc(C(=O)NC2CCN(C)CC2)ccc1Nc1ncc2c(n1)c(C(C)C)c(OC)c(=O)n2C` [Example 24, 4-[(8-isopropyl-7-methoxy-5-methyl-6-oxo-5,6-dihydropyrido[3,2-d]pyrimidin-2-yl)amino]-3-methoxy-N-(1-methylpiperidin-4-yl)benzamide], with under 1 µM; and `C#Cc1c(OC)c(=O)n(C)c2cnc(Nc3ccc(C(=O)NC4CCN(C)CC4)cc3OC)nc12` [Example 46, 4-[(8-ethynyl-7-methoxy-5-methyl-6-oxo-5,6-dihydropyrido[3,2-d]pyri-midin-2-yl)amino]-3-methoxy-N-(1-methylpiperidin-4-yl)benzamide], with under 0.1 µM; and `C/C=C/c1c(OC(C)CC)c(=O)n(C)c2cnc(Nc3ccc(C(=O)NC4CCN(C)CC4)cc3OC)nc12` (stereo not drawn) [Example 40, 4-({7-sec-butoxy-5-methyl-6-oxo-8-[(1E)-prop-1-en-1-yl]-5,6-dihydro-pyrido[3,2-d]pyrimidin-2-yl}amino)-3-methoxy-N-(1-methylpiperidin-4-yl)benzamide], with under 0.1 µM.
Then `COc1cc(C(=O)NC2CCN(C(C)C)CC2)ccc1Nc1ncc2c(n1)c(-c1ccsc1)c(OCC1CC1)c(=O)n2C` [Example 49, 4-{[7-(cyclopropylmethoxy)-5-methyl-6-oxo-8-(3-thienyl)-5,6-dihydropyrido[3,2-d]pyrimidin-2-yl]amino}-N-(1-isopropylpiperidin-4-yl)-3-methoxybenzamide], with under 0.01 µM; and `COc1cc(C(=O)NC2CCN(C)CC2)ccc1Nc1ncc2c(n1)c(-c1ccco1)c(OC)c(=O)n2C` [Example 10, 4-{[8-(2-furyl)-7-methoxy-5-methyl-6-oxo-5,6-dihydropyrido[3,2-d]pyrimidin-2-yl]amino}-3-methoxy-N-(1-methylpiperidin-4-yl)benzamide], with under 0.1 µM; and `C/C=C/c1c(OC)c(=O)n(C)c2cnc(Nc3ccc(C(=O)NCC4CCN(C)CC4)cc3OC)nc12` [Example 26, 3-methoxy-4-({7-methoxy-5-methyl-6-oxo-8-[(1E)-prop-1-en-1-yl]-5,6-dihydropyrido[3,2-d]pyrimidin-2-yl}amino)-N-[(1-methylpiperidin-4-yl)methyl]benzamide], with under 0.1 µM.
